Consider four molecules from patent US4822823A, “Aqueous preparation and method of preparation thereof” (priority 1986, dated 1989).

Series [1] in a line: Stability test of compound (A) with α-cyclodextrin at varying pHs. Type of series: physicochemical. The protocol:
Stability test of compound (A) was performed in the following formula at varying pHs: […]
Purified Water amount totaling 1000 ml
Note: The data are represented in terms of persistence rate (%).

For series [2] the following is noted: 25° C.; cited from earlier work.
In the next series the test system is 5-riboxygenase. The settings on record: cited from earlier work.
For series [3], the system named is production of SRS-A or LTB4. The settings on record: cited from earlier work.
Series [4] relates to experimental allergic asthma. The settings on record: IgG and IgE, Guinea pigs; cited from earlier work.
Series [5] concerns experimental allergic asthma. The settings on record: IgE, rats; cited from earlier work.
The conditions of series [6]: for enhancement of solubility of compound (A) (in words): phosphoric acid buffer pH 6.0. The protocol:
The dissolution-assisting agents used as a control are β-cyclodextrin, γ-cyclodextrin, polyvinyl pyrrolidone (hereinbelow abbreviated as PVP), polyoxyethylene monostearate (hereinbelow abbreviated as MYS-40), polyoxyethylene sorbitan monooleate (hereinbelow abbreviated as TO-80), and polyoxyethylene cured castor oil (hereinbelow abbreviated as HCO-40, HCO-60).
Solubility was determined by dissolving the respective dissolution-assisting agents into 0.2 mole of phosphoric acid buffer solution (Na2 HPO4 NaH2 PO4, pH 6.0), then adding excessive amount of compound (A) and shaking the mixed solution at room temperature (15° C.~20° C.) for 5 days, centrifuging the solution, filtering the supernatant by use of cotton stoppers, and subsequently measuring the concentration of compound (A) contained in the filtrate with a high-speed liquid chromatography.

“Also recorded” adds a separate entry of the source. Where two headings read alike, the source gives them in different places.

On to `CC1=C(C)C(=O)C(CCCCC#CCCCC#CCO)=C(C)C1=O` [Compound (A)], for which the persistence rate in series [1] (60° C.-3 days, pH 4.0, with α-cyclodextrin) was 101.2%; in series [1] (60° C.-3 days, pH 5.0, with α-cyclodextrin) it was 102.6%; in series [1] (60° C.-3 days, pH 6.0, with α-cyclodextrin), 102.5%; in series [1] (60° C.-3 days, pH 7.0, with α-cyclodextrin), 93.3%; in series [1] (60° C.-5 days, pH 4.0, with α-cyclodextrin), 102.5%; in series [1] (60° C.-5 days, pH 5.0, with α-cyclodextrin), 99.5%. Moreover, the persistence rate was found to be 102.8% in series [1] (60° C.-5 days, pH 6.0, with α-cyclodextrin); 87.6% in series [1] (60° C.-5 days, pH 7.0, with α-cyclodextrin); 99.6% in series [1] (Room temp.-5 days, pH 4.0, with α-cyclodextrin); 103.0% in series [1] (Room temp.-5 days, pH 5.0, with α-cyclodextrin); 99.4% in series [1] (Room temp.-5 days, pH 6.0, with α-cyclodextrin); 99.1% in series [1] (Room temp.-5 days, pH 7.0, with α-cyclodextrin). Besides, the solubility to water result in series [2] is “less than 10 ng/ml”. Also, the “5-riboxygenase inhibition (in words)” value in the series on 5-riboxygenase was “selective inhibitor for 5-riboxygenase”. Moreover, the “inhibition of production of SRS-A or LTB4 (in words)” value in series [3] is reported as “inhibit the production of SRS-A or LTB4”. Moreover, the “effect on experimental allergic asthma (in words)” value in series [4] and in series [5] was “showing experimental allergic asthma” each time.
For `OC[C@H]1O[C@@H]2O[C@H]3[C@H](O)[C@@H](O)[C@@H](O[C@H]4[C@H](O)[C@@H](O)[C@@H](O[C@H]5[C@H](O)[C@@H](O)[C@@H](O[C@H]6[C@H](O)[C@@H](O)[C@@H](O[C@H]7[C@H](O)[C@@H](O)[C@@H](O[C@H]1[C@H](O)[C@H]2O)O[C@@H]7CO)O[C@@H]6CO)O[C@@H]5CO)O[C@@H]4CO)O[C@@H]3CO` [α-cyclodextrin], the “solubility-enhancing effect relative to phosphoric acid buffer” value in series [6] (compound (A), versus phosphoric acid buffer having pH 6) is recorded as 1000 times. In addition, the “enhancement of solubility of compound (A) (in words)” value in series [6] is “remarkably enhances the solubility of compound (A) without impairing its stability; also recorded: highly advantageous effect; also recorded: prominent enhancement of solubility”.
With `OC[C@H]1O[C@@H]2O[C@H]3[C@H](O)[C@@H](O)[C@@H](O[C@H]4[C@H](O)[C@@H](O)[C@@H](O[C@H]5[C@H](O)[C@@H](O)[C@@H](O[C@H]6[C@H](O)[C@@H](O)[C@@H](O[C@H]7[C@H](O)[C@@H](O)[C@@H](O[C@H]8[C@H](O)[C@@H](O)[C@@H](O[C@H]9[C@H](O)[C@@H](O)[C@@H](O[C@H]1[C@H](O)[C@H]2O)O[C@@H]9CO)O[C@@H]8CO)O[C@@H]7CO)O[C@@H]6CO)O[C@@H]5CO)O[C@@H]4CO)O[C@@H]3CO` [γ-cyclodextrin, reference compound], in series [6], the “enhancement of solubility of compound (A) (in words)” value is on record as “do not show any intended effect; also recorded: can hardly enhance the solubility”.
As to dimethyl-β-cyclodextrin, the “solubility-enhancing effect relative to phosphoric acid buffer” value in series [6] (pH 6) turned out to be 1000 times.
